Measured values as given in US12559529B2, “NPY2 receptor agonists” (Boehringer Ingelheim International GmbH, priority 2019, dated 2026).

Key:
human NPY1 receptor = biological target: T1, human NPY1 receptor (Homo sapiens, UniProt P25929); experiment: HTRF cAMP Gi assay, hY1R; assay type: cell-based; settings: Table 4; CHO-K1 cells
T1 construct: expressed in transfected cells; host or cells: CHO-K1
T1 sequence (P25929 1-384): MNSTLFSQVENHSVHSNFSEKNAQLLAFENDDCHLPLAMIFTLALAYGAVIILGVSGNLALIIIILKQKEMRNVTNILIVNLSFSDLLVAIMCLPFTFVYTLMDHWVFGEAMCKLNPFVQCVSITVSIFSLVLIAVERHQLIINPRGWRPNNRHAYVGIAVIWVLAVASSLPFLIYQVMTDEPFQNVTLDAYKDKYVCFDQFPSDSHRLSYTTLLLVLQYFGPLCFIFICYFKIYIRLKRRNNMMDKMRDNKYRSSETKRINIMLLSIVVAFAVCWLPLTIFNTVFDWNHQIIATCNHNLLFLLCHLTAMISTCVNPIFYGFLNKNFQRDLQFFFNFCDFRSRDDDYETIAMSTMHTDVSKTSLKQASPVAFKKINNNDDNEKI
Procedure: (§1) Briefly, the production of intracellular cAMP will generate a competition between unlabeled cAMP and exogenously added d2-cAMP for anti-cAMP antibodies conjugated to cryptate. CHO-K1 cells stably expressing the human NPY1, NPY2, NPY4 and NPY5 receptors were used with the cells brought to life from a frozen stock immediately before assay performance. 2000 cells per well were applied for all four NPY receptor subtype assays. A 384-well format was used applying a total volume of 20 μl using 5 μl cells, 2.5 μl peptide agonist, 2.5 μl forskolin and 5 μl of each of the fluorophores. […] Concentration-response evaluation of compounds was performed with 11 concentrations of agonist peptides (covering 3 decades). EC50 values were calculated by nonlinear regression using sigmoid concentration-response with variable slope.

human NPY4 receptor = biological target: T2, human NPY4 receptor (Homo sapiens, UniProt P50391); experiment: HTRF cAMP Gi assay, hY4R; assay type: cell-based; settings: Table 4; CHO-K1 cells
T2 construct: expressed in transfected cells; host or cells: CHO-K1
T2 sequence (P50391 whole entry): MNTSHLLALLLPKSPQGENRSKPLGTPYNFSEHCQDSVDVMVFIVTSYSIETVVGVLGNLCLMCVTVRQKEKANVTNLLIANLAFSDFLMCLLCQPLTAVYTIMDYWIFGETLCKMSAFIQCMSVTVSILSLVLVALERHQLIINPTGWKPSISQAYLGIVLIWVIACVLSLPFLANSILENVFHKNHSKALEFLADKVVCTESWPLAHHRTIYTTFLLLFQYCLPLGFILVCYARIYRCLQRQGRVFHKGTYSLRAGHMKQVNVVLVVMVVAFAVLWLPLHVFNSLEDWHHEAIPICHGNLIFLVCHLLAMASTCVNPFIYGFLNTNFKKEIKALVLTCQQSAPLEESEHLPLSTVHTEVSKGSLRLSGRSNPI
Source text: (§2) The Homogenous Time Resolved fluorescence (HTRF) technology optimized for Gi coupled receptors has thoroughly been described in Cisbio cAMP Gi kit manual. Briefly, the production of intracellular cAMP will generate a competition between unlabeled cAMP and exogenously added d2-cAMP for anti-cAMP antibodies conjugated to cryptate. CHO-K1 cells stably expressing the human NPY1, NPY2, NPY4 and NPY5 receptors were used with the cells brought to life from a frozen stock immediately before assay performance. 2000 cells per well were applied for all four NPY receptor subtype assays. A 384-well format was used applying a total volume of 20 μl using 5 μl cells, 2.5 μl peptide agonist, 2.5 μl forskolin and 5 μl of each of the fluorophores. […] Concentration-response evaluation of compounds was performed with 11 concentrations of agonist peptides (covering 3 decades). EC50 values were calculated by nonlinear regression using sigmoid concentration-response with variable slope.

normal NMRI mice = experiment: Effect on acute food intake in normal NMRI mice; assay type: in vivo; settings: male NMRI mice, 10 nmol/kg subcutaneously once
Outline: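 A single 10 nmol/kg s.c. peptide dose was given 1 h before lights-off to male NMRI mice fasted from 6 h before the night phase (n=7-8). Intake was recorded continuously by microchip-identified HM-2 feeding channels. Values are normalized to vehicle controls (50 mM phosphate buffer pH7 with 5% Mannitol).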

human NPY2 receptor = biological target: T3, human NPY2 receptor (Homo sapiens, UniProt P49146); experiment: HTRF cAMP Gi assay, hY2R
T3 sequence (P49146 1-381): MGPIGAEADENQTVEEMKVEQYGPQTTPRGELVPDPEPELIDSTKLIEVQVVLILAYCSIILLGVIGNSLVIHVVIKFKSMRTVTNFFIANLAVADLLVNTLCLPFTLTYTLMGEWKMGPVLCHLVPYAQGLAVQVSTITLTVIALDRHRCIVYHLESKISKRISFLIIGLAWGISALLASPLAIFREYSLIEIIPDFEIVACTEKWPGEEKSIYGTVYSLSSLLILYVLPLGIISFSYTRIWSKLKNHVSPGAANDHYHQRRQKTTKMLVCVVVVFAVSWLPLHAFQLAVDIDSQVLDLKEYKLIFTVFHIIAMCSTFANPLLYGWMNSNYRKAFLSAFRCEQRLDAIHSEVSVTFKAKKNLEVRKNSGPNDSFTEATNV
Procedure: as §1

human NPY5 receptor = biological target: T4, human NPY5 receptor (Homo sapiens, UniProt Q15761); experiment: HTRF cAMP Gi assay, hY5R
T4 sequence (Q15761 1-445): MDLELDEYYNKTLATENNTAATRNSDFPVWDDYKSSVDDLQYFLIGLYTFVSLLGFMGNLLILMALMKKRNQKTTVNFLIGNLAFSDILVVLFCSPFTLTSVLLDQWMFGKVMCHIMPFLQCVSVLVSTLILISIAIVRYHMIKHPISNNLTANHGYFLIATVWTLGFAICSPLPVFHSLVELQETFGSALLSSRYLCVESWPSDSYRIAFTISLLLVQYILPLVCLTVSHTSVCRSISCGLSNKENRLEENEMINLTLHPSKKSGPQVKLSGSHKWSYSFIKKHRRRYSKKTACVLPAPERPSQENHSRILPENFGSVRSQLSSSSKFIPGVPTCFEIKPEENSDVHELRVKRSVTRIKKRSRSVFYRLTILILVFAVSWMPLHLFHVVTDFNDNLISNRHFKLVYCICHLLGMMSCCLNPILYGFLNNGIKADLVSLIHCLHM
Source text: as §2

[1] = biological target: T5, Human Neuropeptide Y2 Receptor (Homo sapiens, UniProt P49146); experiment: Radioligand binding competition assay (RLB); settings: Table 3; human 125I-PYY (1-36) 0.02 nM, Y2 receptor membranes; read-out: Ki
T5 construct: purchased CHEMICON HTS066M
T5 sequence (P49146 1-381): T3 sequence (P49146 1-381)
Outline: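 IC50 values come from nonlinear regression of sigmoidal dose-response curves of filter-bound radioactivity. Peptides competed with radioligand at human Y2 receptor membranes (0.5 μg protein/well) for 2 h at room temperature in pH 7.4 HEPES buffer containing Mg2+, Ca2+ and 0.2% ovalbumin.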

Row | Structure (SMILES) | EC50 (human NPY1 receptor) [nM] | EC50 (human NPY4 receptor) [nM] | Acute Food Intake 24 h [% vehicle] (normal NMRI mice) | EC50 (human NPY2 receptor) [nM] | EC50 (human NPY5 receptor) [nM] | Ki [1] [nM]
1 | CC[C@H](C)[C@H](NC(=O)[C@H](CCC(=O)O)NC(=O)[C@H](CCC(=O)O)NC(=O)[C@@H]1CCCN1C(=O)[C@H](CO)NC(=O)[C@H](C)NC(=O)[C@H](CC(=O)O)NC(=O)[C@H](CCC(=O)O)NC(=O)[C@H](CCC(=O)O)NC(=O)[C@@H]1CCCN1C(=O)[C@H](CCCCNC(=O)COCCOCCNC(=O)COCCOCCNC(=O)CC[C@H](NC(=O)CCCCCCCCCCCCCCCCC(=O)O)C(=O)O)NC(=O)[C@H](CCC(=O)O)NC(=O)[C@@H]1CCCN1C(=O)[C@H](C)NC(=O)CC(C)C)C(=O)N[C@@H](CCC(N)=O)C(=O)N[C@@H](CCC(N)=O)C(=O)N[C@@H](Cc1ccc(O)cc1)C(=O)N[C@@H](Cc1ccc(O)cc1)C(=O)N[C@H](C(=O)N[C@@H](CO)C(=O)N[C@@H](CC(C)C)C(=O)N[C@@H](CCCNC(=N)N)C(=O)N[C@@H](Cc1c[nH]cn1)C(=O)N[C@@H](Cc1ccc(O)cc1)C(=O)N[C@@H](Cc1ccc(O)cc1)C(=O)N[C@@H](CC(N)=O)C(=O)N[C@@H](Cc1c[nH]c2ccccc12)C(=O)N[C@@H](CC(C)C)C(=O)N[C@H](C(=O)N[C@@H](CCCNC(=N)N)C(=O)N[C@@H](CCC(N)=O)C(=O)N[C@@H](CCCNC(=N)N)C(=O)N[C@@H](Cc1ccc(O)cc1)C(N)=O)[C@@H](C)O)C(C)C [Compound 11, N{alpha-4}-(3-methylbutanoyl)-N{epsilon-7}-[2-(2-{2-[2-(2-{2-[(4S)-4-carboxy-4-(17-carboxyheptadecanamido)butanamido]ethoxy}ethoxy)acetamido]ethoxy}ethoxy)acetamido]-[4A,7K,9E,17I,18Q,19Q,22V,28Y,30W,31L]hPYY (4-36)] | > 5000 | > 5000 | 42 | 0.334 | > 5000 | 
2 | CC(C)CC(=O)N[C@@H](C)C(=O)N1CCC[C@H]1C(=O)N[C@@H](CCC(=O)O)C(=O)N[C@@H](CCCCNC(=O)COCCOCCNC(=O)COCCOCCNC(=O)CC[C@H](NC(=O)CCCCCCCCCCCCCCCCC(=O)O)C(=O)O)C(=O)N1CCC[C@H]1C(=O)N[C@@H](CCC(=O)O)C(=O)N[C@@H](CCC(=O)O)C(=O)N[C@@H](CC(=O)O)C(=O)N[C@@H](C)C(=O)N[C@@H](CCC(=O)O)C(=O)N1CCC[C@H]1C(=O)N[C@@H](CCC(=O)O)C(=O)N[C@@H](CCC(=O)O)C(=O)N[C@@H](CC(C)C)C(=O)N[C@@H](CCC(N)=O)C(=O)N[C@@H](CCC(N)=O)C(=O)N[C@@H](Cc1ccc(O)cc1)C(=O)N[C@@H](Cc1ccc(O)cc1)C(=O)N[C@H](C(=O)N[C@@H](CO)C(=O)N[C@@H](CC(C)C)C(=O)N[C@@H](CCCNC(=N)N)C(=O)N[C@@H](Cc1c[nH]cn1)C(=O)N[C@@H](Cc1ccc(O)cc1)C(=O)N[C@@H](Cc1ccc(O)cc1)C(=O)N[C@@H](CC(N)=O)C(=O)N[C@@H](Cc1c[nH]c2ccccc12)C(=O)N[C@@H](CC(C)C)C(=O)N[C@H](C(=O)N[C@@H](CCCNC(=N)N)C(=O)N[C@@H](CCC(N)=O)C(=O)N[C@@H](CCCNC(=N)N)C(=O)N[C@@H](Cc1ccc(O)cc1)C(N)=O)[C@@H](C)O)C(C)C [Compound 18, N{alpha-4}-(3-methylbutanoyl)-N{epsilon-7}-[2-(2-{2-[2-(2-{2-[(4S)-4-carboxy-4-(17-carboxyheptadecanamido)butanamido]ethoxy}ethoxy)acetamido]ethoxy}ethoxy)acetamido]-[4A,7K,9E,13E,18Q,19Q,22V,28Y,30W,31L]hPYY (4-36)] | > 5000 | > 5000 | 58 | 0.167 | > 5000 | 3.71
3 | CC(C)CC(=O)N[C@@H](C)C(=O)N1CCC[C@H]1C(=O)N[C@@H](CCC(=O)O)C(=O)N[C@@H](CCCCNC(=O)COCCOCCNC(=O)COCCOCCNC(=O)CC[C@H](NC(=O)CCCCCCCCCCCCCCCCC(=O)O)C(=O)O)C(=O)N1CCC[C@H]1C(=O)N[C@@H](CCC(=O)O)C(=O)N[C@@H](CCC(=O)O)C(=O)N[C@@H](CCC(=O)O)C(=O)N[C@@H](C)C(=O)N[C@H](C(=O)N1CCC[C@H]1C(=O)N[C@@H](CCC(=O)O)C(=O)N[C@@H](CCC(=O)O)C(=O)N[C@@H](CC(C)C)C(=O)N[C@@H](CCC(N)=O)C(=O)N[C@@H](CCCNC(=N)N)C(=O)N[C@@H](Cc1ccc(O)cc1)C(=O)N[C@@H](Cc1ccc(O)cc1)C(=O)N[C@H](C(=O)N[C@@H](CO)C(=O)N[C@@H](CC(C)C)C(=O)N[C@@H](CCCNC(=N)N)C(=O)N[C@@H](Cc1c[nH]cn1)C(=O)N[C@@H](Cc1ccc(O)cc1)C(=O)N[C@@H](Cc1ccc(O)cc1)C(=O)N[C@@H](CC(N)=O)C(=O)N[C@@H](Cc1c[nH]c2ccccc12)C(=O)N[C@@H](CC(C)C)C(=O)N[C@H](C(=O)N[C@@H](CCCNC(=N)N)C(=O)N[C@@H](CCC(N)=O)C(=O)N[C@@H](CCCNC(=N)N)C(=O)N[C@@H](Cc1ccc(O)cc1)C(N)=O)[C@@H](C)O)C(C)C)[C@@H](C)O [Compound 41, N{alpha-4}-(3-methylbutanoyl)-N{epsilon-7}-[2-(2-{2-[2-(2-{2-[(4S)-4-carboxy-4-(17-carboxyheptadecanamido)butanamido]ethoxy}ethoxy)acetamido]ethoxy}ethoxy)acetamido]-[4A,7K,9E,11E,13T,18Q,22V,28Y,30W,31L]hPYY (4-36)] | > 5000 | > 5000 | 44 | 0.159 | > 5000 | 3.22
4 | CC(C)CC(=O)N[C@@H](C)C(=O)N1CCC[C@H]1C(=O)N[C@@H](CCC(=O)O)C(=O)N[C@@H](CCCCNC(=O)COCCOCCNC(=O)COCCOCCNC(=O)CC[C@H](NC(=O)CCCCCCCCCCCCCCCCC(=O)O)C(=O)O)C(=O)N1CCC[C@H]1C(=O)N[C@@H](CCC(=O)O)C(=O)N[C@@H](CCC(=O)O)C(=O)N[C@@H](CCC(=O)O)C(=O)N[C@@H](C)C(=O)N[C@@H](CO)C(=O)N1CCC[C@H]1C(=O)N[C@@H](CCC(=O)O)C(=O)N[C@@H](CCC(=O)O)C(=O)N[C@@H](CC(C)C)C(=O)N[C@@H](CCC(N)=O)C(=O)N[C@@H](CCCNC(=N)N)C(=O)N[C@@H](Cc1ccc(O)cc1)C(=O)N[C@@H](Cc1ccc(O)cc1)C(=O)N[C@H](C(=O)N[C@@H](CO)C(=O)N[C@@H](CC(C)C)C(=O)N[C@@H](CCCNC(=N)N)C(=O)N[C@@H](Cc1c[nH]cn1)C(=O)N[C@@H](Cc1ccc(O)cc1)C(=O)N[C@@H](Cc1ccc(O)cc1)C(=O)N[C@@H](CC(N)=O)C(=O)N[C@@H](Cc1c[nH]c2ccccc12)C(=O)N[C@@H](CC(C)C)C(=O)N[C@H](C(=O)N[C@@H](CCCNC(=N)N)C(=O)N[C@@H](CCC(N)=O)C(=O)N[C@@H](CCCNC(=N)N)C(=O)N[C@@H](Cc1ccc(O)cc1)C(N)=O)[C@@H](C)O)C(C)C [Compound 46, N{alpha-4}-(3-methylbutanoyl)-N{epsilon-7}-[2-(2-{2-[2-(2-{2-[(4S)-4-carboxy-4-(17-carboxyheptadecanamido)butanamido]ethoxy}ethoxy)acetamido]ethoxy}ethoxy)acetamido]-[4A,7K,9E,11E,18Q,22V,28Y,30W,31L]hPYY (4-36)] | > 5000 | > 5000 | 39 | 0.152 | > 5000 | 3.3
